Patent publication US10501473B2, “Fused heterocyclic ring compounds and method of treating retinal disease using same” (THE INDUSTRY & ACADEMIC COOPERATION IN CHUNGNAM NATIONAL …, priority 2014, dated 2019)

Columns and labels:
[1] = molecular target: RIPK1 (receptor-interacting serine/threonine-protein kinase 1) (Homo sapiens (Human), UniProt Q13546); assay: RIPK1 inhibitory activity, autophosphorylation of immuno-precipitated RIPK1 with [32P]γ-ATP; format: biochemical; conditions: for inhibition at 100 µM: Table 2, 100 μM; for activity at 100 µM: compound 100 μM, remaining RIPK1 phosphorylation
Description: The following experiment was performed to evaluate RIPK1 (receptor-interacting serine/threonine-protein kinase 1) inhibitory activity of the compounds of examples of the invention.
RIPK1 enzyme immuno-precipitated in HEK293 (Human Embryonic Kidney 293) cell lysate was used as kinase. The experiment was performed according to the method described in Cell. 12; 137(6):1112-23(2009). RIPK1 protein was over-expressed in HEK293 cell line, to which lysis buffer (50 mM Tris-Cl [pH 8.0], 150 mM NaCl, 1 mM EDTA, 1% NP-40, 0.4 mM phenylmethylsulfonyl fluoride (PMSF)) was added for cell lysis. Centrifugation was performed at 13,000 rpm for 10 minutes to separate the supernatant. RIPK1 monoclonal antibody (610459, BD Bioscience) and A/G agarose beads (sc-2003, Santa Cruz Biotechnology) were added thereto, followed by immuno-precipitation in a 4° C. rotator for 12 hours.
The immune complex was washed with lysis buffer twice and then washed with kinase assay buffer (20 mM HEPES [pH7.6], 2 mM DTT, 1 mM NaF, 1 mM Na3Vo4, 20 mM β-glycerophosphate, 20 mM PNPP, 20 mM MgCl2, 20 mM MnCl2, 1 mM Benzamidie, and 1 mM EDTA) lastly. Kinase assay buffer and the compound were added to the RIPK1 immuno-precipitate, followed by reaction in a 24° C. constant-temperature water bath for 15 minutes. Additional reaction was induced for 30 minutes at 30° C. after 100 μM of ATP and 10 μCi[^32P] γ-ATP were added thereto. The reaction mixture was washed with kinase assay buffer once, to which protein loading buffer was added, followed by heating at 100° C. for 3 minutes. The reaction mixture was then loaded on 8% SDS-PAGE gel. Radioactive image of the phosphorylated RIPK1 was detected with FLA-7000 (GE healthcare). The image Quant TL program was used for the quantification.

[2] = system: RGC-5 (rat ganglion cell); assay: Retinal nerve protection under oxygen-glucose deprivation (OGD), LDH assay; format: cell-based; conditions: RGC-5, OGD 15 hours, compound 20 μM, DMSO control = 100%
Description: The following experiment was performed to evaluate the protective effect of the compounds of examples of the invention on the retinal nerve under oxygen-glucose deprivation condition.
The retinal ganglion cell line RGC-5 (rat ganglion cell) was cultured in DMEM (Dulbecco's modified Eagle's medium) supplemented with 10% FBS (fetal bovine serum) and 1% penicillin/streptomycin. The cells were distributed in a 96-well plate at the density of 8×10^3 cells/well, followed by culture in a 37° C., CO2 incubator for 12 hours. The cells were washed with PBS once and the medium was replaced with glucose free DMEM. The cells were treated with either DMSO (0.1%) alone (control) or with the compounds of examples (20 μM) shown in Table 3, followed by culture in an anaerobic incubator (10% H2, 5% CO2, 85% N2, 37° C., chamber (ThermoForma, USA)) for 15 hours to induce cell death.
The level of cell death was measured by LDH (lactate dehydrogenase, Roche) assay. The LDH assay is a method for measuring the activity of LDH released from the damaged cells into the culture medium. NAD^+ was reduced to NADH and H^+ by LDH, and the bond of tetrazolium salt INT ring was cleaved by diaphorase to form formazan. Absorbance of the formazan was measured at 490 nm by using Victor 3 (PerkinElmer). The absorbance reflects the amount of dead cells.
The level of the control LDH under oxygen-glucose deprivation condition was regarded as 100%, and the level of LDH in the cell group cultured in normal medium (10% FBS, DMEM) for the same time was regarded as 0%. Based on that, the levels of LDH of the cell groups treated with the compounds of the invention under oxygen-glucose deprivation condition were converted into the relative ratio of cell death. The compounds of examples of the invention were treated to wells, each compound for three wells, and then each experiment was performed in triplicate.

Sequence of RIPK1 (receptor-interacting serine/threonine-protein kinase 1) (Q13546 whole entry, species assumed): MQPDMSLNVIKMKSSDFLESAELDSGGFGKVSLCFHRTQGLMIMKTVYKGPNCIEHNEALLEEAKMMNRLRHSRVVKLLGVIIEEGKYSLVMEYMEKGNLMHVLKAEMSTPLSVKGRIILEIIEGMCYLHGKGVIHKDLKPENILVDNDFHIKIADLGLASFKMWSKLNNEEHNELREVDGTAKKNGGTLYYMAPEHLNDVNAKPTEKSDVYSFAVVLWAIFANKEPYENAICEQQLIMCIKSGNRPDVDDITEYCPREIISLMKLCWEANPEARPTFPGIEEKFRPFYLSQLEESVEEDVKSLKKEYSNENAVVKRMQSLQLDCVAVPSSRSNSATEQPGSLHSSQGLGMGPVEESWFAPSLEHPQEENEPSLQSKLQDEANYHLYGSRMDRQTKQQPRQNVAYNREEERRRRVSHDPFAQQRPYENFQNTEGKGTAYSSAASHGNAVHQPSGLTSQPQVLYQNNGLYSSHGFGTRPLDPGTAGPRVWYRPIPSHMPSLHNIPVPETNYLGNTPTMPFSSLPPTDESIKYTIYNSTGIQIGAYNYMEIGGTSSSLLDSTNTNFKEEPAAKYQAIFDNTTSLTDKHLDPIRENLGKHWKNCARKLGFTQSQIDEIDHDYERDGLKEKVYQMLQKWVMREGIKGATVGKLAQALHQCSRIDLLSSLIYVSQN

Row | SMILES | inhibition at 100 µM [1] | activity at 100 µM [1] | Death of retinal nerve cell (%) [2]
1 | O=C(c1cc2c(-c3ccc(F)cc3)cncc2s1)N1CCOCC1 [Example 2, (4-(4-fluorophenyl)thieno[2,3-c]pyridine-2-yl)(morpholino)methanone] | ≥ 50% | 45 ± 12.7% | 
2 | O=C(c1cc2ccc3ccccc3c2s1)N1CCOCC1 [Example 6, morpholino(naphtho[1,2-b]thiophene-2-yl)methanone] | ≥ 50% | 48.5 ± 23.3% | 30.7 ± 1.06%
3 | O=C(O)C1COCCN1C(=O)c1cc2c(-c3ccc(F)cc3)cccc2s1 (stereo not shown) [Example 8, 4-(4-(4-fluorophenyl)benzo[b]thiophene-2-carbonyl)morpholine-3-carboxylic acid] |  | 88.5 ± 16.3% | 52.3 ± 11.1%
4 | O=C(c1cc2c(-c3ccc4[nH]ccc4c3)cccc2s1)N1CCOCC1 [Example 9, (4-(1H-indole-5-yl)benzo[b]thiophene-2-yl)(morpholino)methanone] |  | 76 ± 33.9% | 64.6 ± 9.5%
5 | O=C(c1cc2cc(O)ccc2[nH]1)N1CCOCC1 [Example 11, (5-hydroxy-1H-indole-2-yl)(morpholino)methanone] |  | 70.7 ± 28.5% | 41.1 ± 3.1%
6 | Cc1cc(C)c2cc(C(=O)N3CCOCC3)sc2c1 [Example 17, (4,6-dimethylbenzo[b]thiophene-2-yl)(morpholino)methanone] |  | 62.5 ± 16.8% | 38.5 ± 5.5%
7 | O=C(c1cc2c(-c3ccc(-c4ccccc4)cc3)cccc2s1)N1CCOCC1 [Example 31, (4-(biphenyl-4-yl)benzo[b]thiophene-2-yl)(morpholino)methanone] |  | 85.2 ± 3.5% | 81.2 ± 8.3%
8 | COc1ccc(-c2cccc3sc(C(=O)N4CCOCC4)cc23)cc1 [Example 34, (4-(4-methoxyphenyl)benzo[b]thiophene-2-yl)(morpholino)methanone] |  | 16.5 ± 7.8% | 55.4 ± 18.1%
9 | Cl.NC1CCN(C(=O)c2cc3c(-c4ccc(F)cc4)cccc3s2)CC1 [Example 37, (4-aminopiperidine-1-yl) (4-(4-fluorophenyl)benzo[b]thiophene-2-yl)methanone hydrochloride] | ≥ 50% | 25.5 ± 14.8% | 87.0 ± 13.2%
10 | O=C(c1cc2cc(-c3ccc(F)cc3)ccc2s1)N1CCOCC1 [Example 40, (5-(4-fluorophenyl)benzo[b]thiophene-2-yl)(morpholino)methanone] |  | 57.5 ± 12% | 68.2 ± 11.2%
11 | O=C(c1cc2c(-c3cccc(-c4ccccc4)c3)cccc2s1)N1CCOCC1 [Example 41, (4-(biphenyl-3-yl)benzo[b]thiophene-2-yl)(morpholino)methanone] |  | 84.7 ± 6.4% | 58.3 ± 6.5%
12 | O=C(c1cc2c(-c3ccc(OC(F)(F)F)cc3)cccc2s1)N1CCOCC1 [Example 45, morpholino(4-(4-(trifluoromethoxy)phenyl)benzo[b]thiophene-2-yl)methanone] |  | 86.7 ± 34.6% | 89.4 ± 14.0%
13 | O=C(c1cc2c(-c3ccc(F)cc3)cccc2s1)N1CCOC1 [Example 46, (4-(4-fluorophenyl)benzo[b]thiophene-2-yl) (oxazolidine-3-yl)methanone] |  | 11 ± 5.7% | 55.4 ± 12.8%
14 | O=C(c1cc2c(-c3ccc(F)cc3)cccc2s1)N1CCC(O)CC1 [Example 48, (4-(4-fluorophenyl)benzo[b]thiophene-2-yl)(4-hydroxypiperidine-1-yl)methanone] | ≥ 50% | 25.5 ± 0.7% | 47.7 ± 13.2%
15 | CN1CCN(C(=O)c2cc3c(-c4ccc(F)cc4)cccc3s2)CC1.Cl [Example 49, (4-(4-fluorophenyl)benzo[b]thiophene-2-yl)(4-methylpiperazine-1-yl)methanone hydrochloride] | ≥ 50% | 27 ± 5.7% | 43.8 ± 13.7%
16 | O=C(c1cc2c(-c3ccc(F)cc3)ccc(Cl)c2s1)N1CCOCC1 [Example 53, (7-chloro-4-(4-fluorophenyl)benzo[b]thiophene-2-yl)(morpholino)methanone] |  | 70 ± 4.2% | 59.9 ± 9.7%
17 | O=C(c1cc2c(Cc3cccc(F)c3)cccc2s1)N1CCOCC1 [Example 56, (4-(3-fluorobenzyl)benzo[b]thiophene-2-yl)(morpholino)methanone] |  | 54.5 ± 37.5% | 81.0 ± 16.1%
18 | O=C(c1cc2c(Cc3ccc(F)cc3F)cccc2s1)N1CCOCC1 [Example 57, (4-(2,4-difluorobenzyl)benzo[b]thiophene-2-yl)(morpholino)methanone] |  | 20 ± 14.1% | 89.1 ± 16.9%

More lines, main results first:

Row | inhibition at 100 µM [1] | activity at 100 µM [1] | SMILES | Death of retinal nerve cell (%) [2]
19 |  | 62.5 ± 16.8% | CC(=O)Nc1ccc(-c2cccc3sc(C(=O)N4CCOCC4)cc23)cc1 [Example 10, N-(4-(2-(morpholine-4-carbonyl)benzo[b]thiophene-4-yl)phenyl)acetamide] | 49.0 ± 7.0%
20 |  | 77 ± 12.5% | CCN(CC)C(=O)c1cccc2sc(C(=O)N3CCOCC3)cc12 [Example 20, N,N-diethyl-2-(morpholine-4-carbonyl)benzo[b]thiophene-4-carboxamide] | 43.6 ± 8.5%
21 |  | 6.5 ± 4.9% | Cc1ccc(-c2cccc3sc(C(=O)N4CCOCC4)cc23)cc1 [Example 32, morpholino(4-p-tolylbenzo[b]thiophene-2-yl)methanone] | 64.6 ± 7.4%
22 |  | 90 ± 2.8% | O=C(O)c1ccc(-c2cccc3sc(C(=O)N4CCOCC4)cc23)cc1 [Example 33, 4-(2-(morpholine-4-carbonyl)benzo[b]thiophene-4-yl)benzoic acid] | 51.5 ± 7.0%
23 | ≥ 50% | 35.5 ± 3.9% | Nc1cccc(-c2cccc3sc(C(=O)N4CCOCC4)cc23)c1 [Example 42, (4-(3-aminophenyl)benzo[b]thiophene-2-yl)(morpholino)methanone] | 57.2 ± 11.2%
24 |  | 58.5 ± 17.7% | NC(=O)c1ccc(-c2cccc3sc(C(=O)N4CCOCC4)cc23)cc1 [Example 43, 4-(2-(morpholine-4-carbonyl)benzo[b]thiophene-4-yl)benzamide] | 62.3 ± 1.7%
25 | ≥ 50% | 21 ± 17% | O=C(c1cc2c(-c3ccc(O)cc3)cccc2s1)N1CCOCC1 [Example 44, (4-(4-hydroxyphenyl)benzo[b]thiophene-2-yl)(morpholino)methanone] | 81.1 ± 6.5%
26 | ≥ 50% | 47.5 ± 2.1% | CSc1ccc(-c2cccc3sc(C(=O)N4CCOCC4)cc23)cc1 [Example 50, (4-(4-(methylthio)phenyl)benzo[b]thiophene-2-yl)(morpholino)methanone] | 57.2 ± 8.1%
27 |  | 54.5 ± 37.5% | O=C(c1cc2c(-c3ccc(Br)cc3)cccc2s1)N1CCOCC1 [Example 54, (4-(4-bromophenyl)benzo[b]thiophene-2-yl)(morpholino)methanone] | 74.3 ± 5.1%
28 | ≥ 50% | 43 ± 7.1% | COc1ccc(-c2cccc3sc(C(=O)N4CCOCC4)cc23)cn1 [Example 55, (4-(6-methoxypyridine-3-yl)benzo[b]thiophene-2-yl)(morpholino)methanone] | 47.2 ± 12.4%
